Data published in patent publication US8383663B2, “Bendamustine anionic-catioinic cyclopolysaccharide compositions” (priority 2010, dated 2013).
Counter-ions that a name gives are not always drawn.

System: human breast carcinoma MDA-MB-231 cells
Assay: Growth of subcutaneous solid tumors of human breast carcinoma MDA-MB-231 cells in mice
Type: in vivo, Balb/c mice
Conditions: 35 mg/kg i.v. on day 1, 2, 13 and 14, Average (SEM)
Experimental: Effect of bendamustine in a composition comprising sodium sulfobutyl ether β-cyclodextrin and heptakis(6-amino-6-deoxy-β-cyclodextrin) on growth of subcutaneous solid tumors of human breast carcinoma MDA-MB-231 cells in Balb/c mice.
Balb/c mice aging 5 to 6 weeks were purchased from Charles River Canada Inc. The animals were kept 5 per cage with an air filter cover under light (12 light/dark cycle, light on at 6H00) and temperature (22°±1° C.)-controlled environment. All manipulations of animals were performed under a sterilized laminar. The animals had ad libitum access to Purina mouse chow (Pro Lab PMH 4018, Trademark of Agway, Syracuse, N.Y.) and water. These animal studies were conducted according to the “Guidelines for Care and Use of Experimental Animals”.
Human breast cancer cells MDA-MB 231 were cultured in the appropriated culture medium. The cells were harvested in their logarithmic growth phase for the preparation of tumor implantation.
MDA-MB-231 cells (5.0×10^5 cells per an injection) in culture medium with 30% Matrigel were subcutaneously inoculated at 2 sides of the flank of each animal. Nine to ten days after implantation, when tumor size reaches to 0.5 to 0.8 cm in the diameter, the animals were be randomly divided into groups, 5 animals per group. The treatments by intravenously injection were performed on day 1, 2, 13 and 14. The control group was treated with isotonic saline. The reference group was treated with 35 mg/kg dose of bendamustine HCl in water (7 mg/mL). The test group was treated with 60 mg/kg dose (equitoxic to the reference group treatment) of the composition of the present invention, comprising 13 mg/g bendamustine HCl, 20% SBECD and 1% H6A, and mannitol, prepared according to the procedure set forth in Example 1.
Subcutaneous solid tumor measurements were performed on the day of first injection and at 3- to 4-day intervals thereafter. Two largest perpendicular diameters of each tumor were measured with calipers and tumor size was estimated using formula […] where TV: tumor volume; L: length; W: width.
The body weights of animals were also noted.

For `Cn1c(CCCC(=O)O)nc2cc(N(CCCl)CCCl)ccc21` [Reference BM, bendamustine HCl], the “Tumor weight after treatment” value (day 0) was 0.111 (0.013) g, the “Tumor weight after treatment” value (day 2) was 0.123 (0.016) g and the “Tumor weight after treatment” value (day 5) was 0.134 (0.015) g. For the same molecule, the “Tumor weight after treatment” value (day 7) was 0.146 (0.017) g, the “Tumor weight after treatment” value (day 9) was 0.156 (0.017) g and the “Tumor weight after treatment” value (day 12) was 0.174 (0.018) g. The “Tumor weight after treatment” value (day 14) was 0.205 (0.021) g, the “Tumor weight after treatment” value (day 16) was 0.228 (0.024) g and the “Tumor weight after treatment” value (day 19) was 0.248 (0.035) g. The “Tumor weight after treatment” value (day 21) was 0.272 (0.042) g and the “Tumor weight after treatment” value (day 23) was 0.296 (0.047) g.
